From US6916802B2, “Amino ceramide-like compounds and therapeutic methods of use” (Genzyme Corporation, priority 2002, dated 2005)
Values joined by “and” are separate entries in the source; they are usually repeats but may differ in a detail not shown here. Identical values can stand only once. Marks after values point to notes of the source that are not given here.

What was measured:
neutral ceramidase = experiment: Neutral ceramidase of MDCK cell homogenate; assay type: biochemical, canine
Method: (§1) Acid and neutral ceramidases were assayed under conditions like those above, but the medium contained 110 μM [1-^14C]decanoyl sphingosine (10^5 cpm) in 340 μM dioleoylphosphatidylcholine liposomes and 0.34 mg of MDCK cellular protein homogenate. […] After 60 min in the ultrasonic bath, 3 ml of C-M 2:1, carrier decanoic acid, and 0.6 ml of 0.9% saline were added and the lipids in the lower layer were separated by TLC with C-HOAc 9:1. The liberated decanoic acid was scraped off the glass plate and counted.

MDCK cells = experiment: MDCK cell growth (cellular protein per dish); assay type: cell-based, canine; conditions: duplicate dishes
Method: For the experiments with labeled thymidine, each 8.5 cm dish contained 500,000 Madin-Darby canine kidney (MDCK) cells in 8 ml of Dulbecco modified essential supplemented medium. […] The control cells were also incubated in the presence of BSA. The cells were washed with phosphate/saline and trichloroacetic acid, then scraped off the dishes, dissolved in alkali, and analyzed for protein and DNA incorporated tritium. [Methyl-^3H]thymidine (10 μCi) was added 4 h prior to harvesting.

acid ceramidase = experiment: Acid ceramidase of MDCK cell homogenate; assay type: biochemical, canine
Method: as §1

[1] = tested on: HT-29 colon adenocarcinoma cells; experiment: Tumor cell growth in vitro (sulforhodamine B), HT-29; assay type: cell-based, human; conditions: rounded off to one digit, read-out: Inhibition of tumor cell growth in vitro, IC50
Method: Growth of cell lines. Comparisons of different inhibitors with regard to suppression of human cancer cell growth were made by the University of Michigan Cancer Center in vitro Drug Evaluation Core Laboratory. MCF-7 breast carcinoma cells, HT-29 colon adenocarcinoma cells, H-460 lung large cell carcinoma cells, and 9L brain gliosarcoma cells were grown in RPMI 1640 medium with 5% fetal bovine serum, 2 mM glutamine, 50 units/ml of penicillin, […] of streptomycin, and 0.1 mg/ml of neomycin. UMSCC-10A head and neck squamous carcinoma cells were grown in minimal essential medium with Earle salts and the same supplements. Medium components were from Sigma Chemical Co. Cells were plated in 96-well microtiter plates (1000 cells/well for H-460 and 9L cells, and 2000 cells/well for the other lines), and the test compounds were added 1 day later. The stock inhibitor solutions, 2 mM in 2 mM BSA, were diluted with different amounts of additional 2 mM BSA, then each solution was diluted 500-fold with growth medium to obtain the final concentrations indicated in the Figures and Tables.
Five days after plating the H-460 and 9L cells, or 6 days for the other lines, cell growth was evaluated by staining the adhering cells with sulforhodamine B and measuring the absorbance at 520 nm (Skehan, P. et al., “New Colorimetric Cytotoxicity Assay for Anticancer-Drug Screening,” J. Natl. Cancer Inst., 82:1107-1112 (1990)). The absorbance of the treated cultures is reported as percent of that of control cultures, to provide an estimate of the fraction of the cells that survived, or of inhibition of growth rate.

[2] = tested on: GlcCer synthase of MDCK cell homogenates; experiment: Inhibition of ceramide glucosyltransferase (GlcCer synthase) of MDCK cell homogenates; assay type: biochemical, canine; conditions: for Inhibition at 5 μM: 5 μM inhibitor, triplicate ± SD, samples partly isomer mixtures
Summary of the method: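 MDCK cell sonicate (~0.2 mg protein) incubated with octanoyl sphingosine (85 μg, in dioleoylphosphatidylcholine/sulfatide liposomes) and UDP-[^3H]glucose in a thermostatted ultrasonic bath. Aromatic inhibitors were dried into the tube; aliphatic inhibitors were incorporated in the substrate liposomes.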

[3] = tested on: Neutral sphingomyelinase (SMase); experiment: Neutral sphingomyelinase of MDCK cells; assay type: biochemical, canine
Method: Acid and neutral SMase assays were based on the procedures of Gatt et al. (Gatt, S. et al., “Assay of Enzymes of Lipid Metabolism With Colored and Fluorescent Derivatives of Natural Lipids,” Meth. Enzymol., 72:351-375 (1981)), using liposomes containing NBD-SM dispersed like the labeled ceramide (10 μM substrate and 30 μM lecithin). […] Incubation was at 37° C. for 30 min in the ultrasonic bath, then the fluorescent product, NBD-ceramide, was isolated by partitioning the assay mixture with 0.45 ml 2-propanol, 1.5 ml heptane, and 0.2 ml water. After centrifugation, a trace of contaminating NBD-SM was removed from 0.9 ml of the upper layer by washing with 0.35 ml water. The upper layer was analyzed with a fluorometer (460 nm excitation, 515 nm emission).

Acid SMase = experiment: Acid sphingomyelinase of MDCK cells; assay type: biochemical, canine
Method: Acid and neutral SMase assays were based on the procedures of Gatt et al. (Gatt, S. et al., “Assay of Enzymes of Lipid Metabolism With Colored and Fluorescent Derivatives of Natural Lipids,” Meth. Enzymol., 72:351-375 (1981)), using liposomes containing NBD-SM dispersed like the labeled ceramide (10 μM substrate and 30 μM lecithin). The assay medium for the neutral enzyme also contained 50 mM Tris-Cl^− (pH 7.4), 25 mM KCl, 5 mM MgCl2 and 0.29 mg of MDCK cell protein in a total volume of 0.25 ml. Incubation was at 37° C. for 30 min in the ultrasonic bath, then the fluorescent product, NBD-ceramide, was isolated by partitioning the assay mixture with 0.45 ml 2-propanol, 1.5 ml heptane, and 0.2 ml water. After centrifugation, a trace of contaminating NBD-SM was removed from 0.9 ml of the upper layer by washing with 0.35 ml water. The upper layer was analyzed with a fluorometer (460 nm excitation, 515 nm emission).
[…] The resultant ceramide was determined as above.

Structure (SMILES): CCCCCCCCCCCCCCCC(=O)NC(CN1CCCC1)C(O)c1ccccc1 (racemic) [BML-129]
- Ceramidase pH 7.4, enzyme activity (% of control) (neutral ceramidase; 5 μM): 100 ± 0 % of control
- Ceramidase pH 7.4, enzyme activity (% of control) (neutral ceramidase; 50 μM): 99 ± 2 % of control
- Protein (MDCK cells; 0.4 μM in growth medium): 538 μg/dish and 500 μg/dish
- Protein (MDCK cells; 4 μM in growth medium): 396 μg/dish and 311 μg/dish
- Ceramidase pH 4.5, enzyme activity (% of control) (acid ceramidase; 5 μM): 108 ± 8 % of control
- Ceramidase pH 4.5, enzyme activity (% of control) (acid ceramidase; 50 μM): 171 ± 26^a % of control
- IC50 [1]: 2000 nM
- Inhibition at 5 μM [2]: 15%
- Sphingomyelinase pH 7.1, enzyme activity (% of control) ([3]; 5 μM): 105 ± 11 % of control
- Sphingomyelinase pH 7.1, enzyme activity (% of control) ([3]; 50 μM): 142 ± 11^b % of control
- Sphingomyelinase pH 4.5, enzyme activity (% of control) (Acid SMase; 5 μM): 108 ± 4 % of control
- Sphingomyelinase pH 4.5, enzyme activity (% of control) (Acid SMase; 50 μM): 97 ± 3 % of control

Structure (SMILES): CCCCCCCCCCCCCCCC(=O)NC(CN1CCCC1)C(O)c1ccccc1 (racemic) [BML-130]
- Ceramidase pH 7.4, enzyme activity (% of control) (neutral ceramidase; 5 μM): 100 ± 15 % of control
- Ceramidase pH 7.4, enzyme activity (% of control) (neutral ceramidase; 50 μM): 100 ± 15 % of control
- Protein (MDCK cells; 0.4 μM in growth medium): 544 μg/dish and 538 μg/dish
- Protein (MDCK cells; 4 μM in growth medium): 160 μg/dish and 268 μg/dish
- Ceramidase pH 4.5, enzyme activity (% of control) (acid ceramidase; 5 μM): 107 ± 11 % of control
- Ceramidase pH 4.5, enzyme activity (% of control) (acid ceramidase; 50 μM): 160 ± 21^a % of control
- IC50 [1]: 2000 nM
- Inhibition at 5 μM [2]: 79%
- degree of inhibition of GlcCer synthase ([2]; 6 μM, inhibitor incorporated into the substrate liposomes): 89±0.6%
- Sphingomyelinase pH 7.1, enzyme activity (% of control) ([3]; 5 μM): 110 ± 7 % of control
- Sphingomyelinase pH 7.1, enzyme activity (% of control) ([3]; 50 μM): 152 ± 14 % of control
- Sphingomyelinase pH 4.5, enzyme activity (% of control) (Acid SMase; 5 μM): 109 ± 1 % of control
- Sphingomyelinase pH 4.5, enzyme activity (% of control) (Acid SMase; 50 μM): 114 ± 2 % of control
